We go through 56 compounds from ChEMBL document CHEMBL4627388, “Structural Specificity of Flavonoids in the Inhibition of Human Fructose 1,6-Bisphosphatase” (J Nat Prod, 2020).

The structures appear in SMILES notation. pIC50: −log10 of the molar value.

The inhibition is how much of the control response was suppressed. By pIC50 is commonly meant the IC50 on a negative log10 scale, so that one unit is a factor of ten. Read a low pIC50 as a large IC50.

One assay deals with T1, Fructose-1,6-bisphosphatase 1 (Homo sapiens) (UniProt P09467).
T1 sequence (whole entry): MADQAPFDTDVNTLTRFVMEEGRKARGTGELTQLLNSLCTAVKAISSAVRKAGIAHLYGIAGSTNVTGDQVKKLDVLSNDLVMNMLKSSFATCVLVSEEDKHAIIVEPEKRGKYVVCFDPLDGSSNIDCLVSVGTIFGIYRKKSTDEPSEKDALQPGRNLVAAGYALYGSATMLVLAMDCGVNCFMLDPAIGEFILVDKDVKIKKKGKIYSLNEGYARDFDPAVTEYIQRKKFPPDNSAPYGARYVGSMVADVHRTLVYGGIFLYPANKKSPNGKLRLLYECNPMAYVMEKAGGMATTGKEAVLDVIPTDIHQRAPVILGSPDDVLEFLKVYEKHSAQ
In words: Inhibition of human liver FBP1 at 200 uM incubated for 5 mins by fluorescence method relative to control.
Turning to `COc1ccc(-c2oc3cc(OC)ccc3c(=O)c2O)cc1`, the inhibition is under 20%.

`O=c1cc(-c2ccc(O)cc2)oc2cccc(O)c12` gave an inhibition of under 20%.

`O=c1cc(-c2ccc(O)c(O)c2)oc2cccc(O)c12` came in with an inhibition of under 20%.

Consider `COc1ccc2c(=O)c(O)c(-c3ccc(OCc4ccccc4)c(OCc4ccccc4)c3)oc2c1OC`, for which the inhibition was under 20%.

In the case of `O=c1cc(-c2ccc(O)cc2)oc2cc(O)cc(O)c12`, the inhibition is under 20%.

With `O=c1cc(-c2cccc(O)c2)oc2ccccc12`, the inhibition was under 20%.

`O=c1c(O)c(-c2ccc(O)cc2O)oc2cc(O)cc(O)c12` gave an inhibition of under 20%.

The compound `O=c1c(O)c(-c2ccc(O)cc2)oc2cc(O)ccc12` gave an inhibition of under 20%.

For `O=c1c(Cl)c(-c2ccc(O)c(O)c2)oc2c(Cl)c(O)cc(O)c12`, the inhibition was under 20%.

The compound `O=c1c(O)c(-c2ccc(O)c(O)c2)oc2cc(O)c(O)c(O)c12` registered an inhibition of 37%.

On to `O=C(O)[C@H]1O[C@@H](Oc2cc3oc(-c4ccccc4)cc(=O)c3c(O)c2O)[C@H](O)[C@@H](O)[C@@H]1O`, for which the inhibition was under 20%.

With `O=c1c(O)c(-c2ccccc2)oc2cc(O)cc(O)c12`, the inhibition was under 20%.

On to `COc1ccc(-c2oc3ccccc3c(=O)c2O)cc1OC`, for which the inhibition is under 20%.

Compound `O=c1cc(-c2ccccc2)oc2ccccc12` returned an inhibition of under 20%.

Compound `COc1ccc(-c2cc(=O)c3c(O)cc(O)cc3o2)cc1OC` yielded an inhibition of under 20%.

For `O=c1cc(-c2ccc(O)cc2)oc2ccccc12`, the inhibition is under 20%.

The compound `COc1cccc(-c2oc3cc(OC)ccc3c(=O)c2O)c1` returned an inhibition of under 20%.

`COc1cc2oc(-c3ccccc3)cc(=O)c2c(O)c1O`: the inhibition is 46%.

In turn, `COc1cc(-c2cc(=O)c3c(O)cc(O)cc3o2)ccc1O` had an inhibition of under 20%.

Compound `O=c1cc(-c2cccc(O)c2)oc2cc(O)ccc12` showed an inhibition of under 20%.

`O=c1c(O)c(-c2ccc(O)c(O)c2)oc2ccccc12`: the inhibition came to 20%.

`O=c1cc(-c2ccc(O)cc2)oc2cc(O)ccc12`: the inhibition is under 20%.

Compound `O=C1C[C@@H](c2ccc(O)cc2)Oc2cc(O)cc(O)c21` showed an inhibition of under 20%.

In the case of `O=c1c(O)c(-c2cc(O)c(O)c(O)c2)oc2cc(O)cc(O)c12`, the inhibition was under 20%.

The compound `O=C1c2c(O)cc(O)cc2O[C@H](c2ccc(O)c(O)c2)[C@H]1O` gave an inhibition of under 20%.

`COc1ccc(-c2cc(=O)c3c(O)cc(O)cc3o2)cc1` gave an inhibition of under 20%.

Compound `COc1ccc(-c2oc3c(OCc4ccccc4)c(OCc4ccccc4)ccc3c(=O)c2O)cc1OC` showed an inhibition of under 20%.

`O=c1cc(-c2cccc(O)c2)oc2cccc(O)c12` returned an inhibition of under 20%.

For `O=c1c(O)c(-c2cccc(O)c2)oc2cc(O)cc(O)c12`, the inhibition was under 20%.

For the compound `O=c1c(O)c(-c2cccc(O)c2)oc2cc(O)ccc12`, the inhibition was under 20%.

Compound `O=c1cc(-c2ccc(O)c(O)c2)oc2cc(O)ccc12` yielded an inhibition of under 20%.

In the case of `O=c1c(O)c(-c2ccc(O)cc2)oc2cc(O)cc(O)c12`, the inhibition was under 20%.

In turn, `O=c1c(O)c(-c2ccc(O)c(O)c2)oc2c(O[C@@H]3O[C@H](CO)[C@@H](O)[C@H](O)[C@H]3O)c(O)cc(O)c12` came in with an inhibition of under 20%.

Take `O=c1cc(-c2ccc(O)c(O)c2)oc2cc(O)c(Cl)c(O)c12`: the inhibition is under 20%.

`O=c1cc(-c2ccccc2)oc2c(O)c(O)cc(O)c12` displayed an inhibition of under 20%.

Consider `O=c1cc(-c2ccc(O)c(O)c2)oc2cc(O)cc(O)c12`, for which the inhibition came to 22%.

Take `O=C1C[C@@H](c2ccc(O)c(O)c2)Oc2cc(O)cc(O)c21`: the inhibition is under 20%.

As to `O=c1cc(-c2ccccc2)oc2cc(O)cc(O)c12`, the inhibition was under 20%.

For `O=c1cc(-c2ccccc2)oc2cccc(O)c12`, the inhibition was under 20%.

Regarding `COc1cc2oc(-c3ccccc3)cc(=O)c2c(OC)c1OC`, the inhibition is under 20%.

Regarding `C[C@@H]1O[C@@H](OC[C@H]2O[C@@H](Oc3c(-c4ccc(O)c(O)c4)oc4cc(O)cc(O)c4c3=O)[C@H](O)[C@@H](O)[C@@H]2O)[C@H](O)[C@H](O)[C@H]1O`, the inhibition was under 20%.

On to `O=c1cc(-c2ccccc2)oc2cc(O)ccc12`, for which the inhibition is under 20%.

On to `O=c1c(Cl)c(-c2ccc(O)c(O)c2)oc2cc(O)cc(O)c12`, for which the inhibition was under 20%.

As to `COc1ccc2c(=O)c(O)c(-c3ccc(O)c(O)c3)oc2c1OC`, the inhibition is under 20%.

With `O=c1cc(-c2ccc(O)c(O)c2)oc2c(Cl)c(O)cc(O)c12`, the inhibition is under 20%.

Compound `COc1ccc(-c2oc3c(O)c(O)ccc3c(=O)c2O)cc1OC` gave an inhibition of 33%.

Compound `O=c1cc(-c2ccc(O)c(O)c2)oc2ccccc12` had an inhibition of 25%.

`Oc1ccc(-c2[o+]c3c(O)c(O)cc(O)c3cc2O)cc1O` yielded an inhibition of 46%.

On to `O=c1c(O)c(-c2ccc(O)c(O)c2)oc2c(O)c(O)ccc12`, for which the inhibition was under 20%.

The compound `O=c1c(Cl)c(-c2ccc(O)c(O)c2)oc2c(Cl)c(O)c(Cl)c(O)c12` came in with an inhibition of under 20%.

`O=c1c(O)c(-c2ccc(O)c(O)c2)oc2cc(O)cc(O)c12` yielded an inhibition of under 20%.

The next assay deals with T2, Fructose-1,6-bisphosphatase 1 (Homo sapiens, UniProt P09467).
T2 sequence (P09467 whole entry): T1 sequence (whole entry)
In words: Inhibition of human liver FBP1 incubated for 5 mins by fluorescence method.
The compound `O=c1c(O)c(-c2ccc(O)c(O)c2)oc2c(O)c(O)cc(O)c12` [GOSSYPETIN] gave a pIC50 of 4.62.

In the case of `O=c1c(O)c(-c2ccc(O)cc2)oc2c(O)c(O)cc(O)c12` [HERBACETIN], the pIC50 is 5.06.

As to `O=c1cc(-c2ccccc2)oc2cc(O)c(O)c(O)c12` [BAICALEIN], the pIC50 is 4.54.

Compound `Nc1ncnc2c1ncn2[C@@H]1O[C@H](COP(=O)(O)O)[C@@H](O)[C@H]1O` [ADENOSINE PHOSPHATE] gave a pIC50 of 5.59.

`O=c1cc(-c2ccc(O)cc2)oc2cc(O)c(O)c(O)c12` [SCUTELLAREIN] showed a pIC50 of 4.42.
